Results as given in BindingDB's records for doi:10.1021/jm970459c (Cambridge Neuroscience, 1998).
pIC50: −log10 of the molar value. Structures can show the parent of a compound that is named as a salt.

Biological target: Sigma receptor (Cavia porcellus)
Assay: Binding assay for the sigma receptor sites is performed by utilizing [3H]N,N-di-o-tolylguanidine ([3H]DTG) and guinea pig brain membrane suspensions

Row | pIC50 | Structure (SMILES)
1 | 7.49 | CCc1cccc(NC(N)=Nc2ccc(Cl)c(Cl)c2)c1 [N-(3,4-Dichloro-phenyl)-N'-(3-ethyl-phenyl)-guanidine; hydrochloride]
2 | 6.52 | CCc1cccc(N(C)C(N)=Nc2cc(SC)cc(CC)c2Br)c1
3 | 6.79 | CCc1cccc(N(C)C(N)=Nc2cccc(SC)c2)c1 [N-(3-Ethyl-phenyl)-N-methyl-N'-(3-methylsulfanyl-phenyl)-guanidine; hydrochloride]
4 | 7.54 | CCc1cccc(N(C)C(N)=Nc2cc(Cl)ccc2Cl)c1 [N'-(2,5-Dichloro-phenyl)-N-(3-ethyl-phenyl)-N-methyl-guanidine; hydrochloride]
5 | 8.10 | CCc1cc(CC)cc(N=C(N)Nc2cccc(CC)c2)c1 [N-(3,5-Diethyl-phenyl)-N'-(3-ethyl-phenyl)-guanidine; hydrochloride]
6 | 6.69 | CCc1cccc(N(C)C(N)=Nc2cc(C(F)(F)F)cc(CC)c2Br)c1 [N'-(2-Bromo-3-ethyl-5-trifluoromethyl-phenyl)-N-(3-ethyl-phenyl)-N-methyl-guanidine; hydrochloride]
7 | 6.70 | CCc1cccc(N(C)C(N)=Nc2cc(CC)cc(C(F)(F)F)c2Cl)c1 [N'-(2-Chloro-5-ethyl-3-trifluoromethyl-phenyl)-N-(3-ethyl-phenyl)-N-methyl-guanidine; hydrochloride]
8 | 6.42 | CCc1cccc(N(C)C(=N)N(C)c2cc(Br)ccc2Br)c1 [N-(2,5-Dibromo-phenyl)-N'-(3-ethyl-phenyl)-N,N'-dimethyl-guanidine; hydrochloride]
9 | 6.74 | CCc1cccc(N(C)C(N)=Nc2cc(CC)cc(SC)c2Br)c1 [N'-(2-Bromo-5-ethyl-3-methylsulfanyl-phenyl)-N-(3-ethyl-phenyl)-N-methyl-guanidine; hydrochloride]
10 | 6.95 | CCc1cccc(N(C)C(N)=Nc2cc(CC)cc(CC)c2Cl)c1 [N'-(2-Chloro-3,5-diethyl-phenyl)-N-(3-ethyl-phenyl)-N-methyl-guanidine; hydrochloride]
11 | 6.58 | CCc1cccc(N(C)C(N)=Nc2cc(CC)cc(OC(F)(F)F)c2Br)c1 [N'-(2-Bromo-5-ethyl-3-trifluoromethoxy-phenyl)-N-(3-ethyl-phenyl)-N-methyl-guanidine; hydrochloride]
12 | 7.40 | CCc1cccc(N(C)C(N)=Nc2cc(Br)cc(CC)c2Br)c1 [N'-(2,5-Dibromo-3-ethyl-phenyl)-N-(3-ethyl-phenyl)-N-methyl-guanidine; hydrochloride]
13 | 7.15 | CCc1cccc(NC(N)=Nc2cc(Cl)cc(Cl)c2)c1 [N-(3,5-Dichloro-phenyl)-N'-(3-ethyl-phenyl)-guanidine; hydrochloride]
14 | 7.41 | CCc1cccc(N(C)C(N)=Nc2ccc(Cl)c(Cl)c2)c1 [N'-(3,4-Dichloro-phenyl)-N-(3-ethyl-phenyl)-N-methyl-guanidine; hydrochloride]
15 | 7.89 | CCc1cccc(NC(N)=Nc2cccc(Cl)c2Cl)c1 [N-(2,3-Dichloro-phenyl)-N'-(3-ethyl-phenyl)-guanidine; hydrochloride]
16 | 7.72 | CCc1cccc(NC(N)=Nc2ccccc2CC)c1 [N-(2-Ethyl-phenyl)-N'-(3-ethyl-phenyl)-guanidine; hydrochloride]
17 | 7.40 | CCc1cccc(N(C)C(N)=Nc2cccc(Br)c2)c1 [N'-(3-Bromo-phenyl)-N-(3-ethyl-phenyl)-N-methyl-guanidine; hydrochloride]
18 | 7.34 | CCc1cccc(N(C)C(N)=Nc2ccc(Cl)cc2)c1 [N'-(4-Chloro-phenyl)-N-(3-ethyl-phenyl)-N-methyl-guanidine; hydrochloride]
19 | 6.65 | CCc1cccc(N(C)C(N)=Nc2cc(Br)cc(C(F)(F)F)c2Br)c1 [N'-(2,5-Dibromo-3-trifluoromethyl-phenyl)-N-(3-ethyl-phenyl)-N-methyl-guanidine; hydrochloride]
20 | 6.66 | CCc1cccc(N(C)C(N)=Nc2cc(CC)cc(C(F)(F)F)c2Br)c1 [N'-(2-Bromo-5-ethyl-3-trifluoromethyl-phenyl)-N-(3-ethyl-phenyl)-N-methyl-guanidine; hydrochloride]
21 | 7.36 | CCc1cccc(N(C)C(N)=Nc2cccc(Cl)c2)c1 [N'-(3-Chloro-phenyl)-N-(3-ethyl-phenyl)-N-methyl-guanidine; hydrochloride]

Row | pIC50 | Structure (SMILES)
22 | 6.75 | CCc1cccc(N(C)C(N)=Nc2cc(CC)cc(SC)c2Cl)c1 [N'-(2-Chloro-5-ethyl-3-methylsulfanyl-phenyl)-N-(3-ethyl-phenyl)-N-methyl-guanidine; hydrochloride]
23 | 6.94 | CCc1cccc(N(C)C(N)=Nc2cc(C(F)(F)F)cc(CC)c2Cl)c1 [N'-(2-Chloro-3-ethyl-5-trifluoromethyl-phenyl)-N-(3-ethyl-phenyl)-N-methyl-guanidine; hydrochloride]
24 | 6.95 | CCc1cccc(N(C)C(N)=Nc2cc(CC)cc(CC)c2F)c1 [N'-(3,5-Diethyl-2-fluoro-phenyl)-N-(3-ethyl-phenyl)-N-methyl-guanidine; hydrochloride]
25 | 7.35 | CCc1cccc(N(C)C(N)=Nc2cc(C)cc(CC)c2Cl)c1 [N'-(2-Chloro-3-ethyl-5-methyl-phenyl)-N-(3-ethyl-phenyl)-N-methyl-guanidine; hydrochloride]
26 | 6.95 | CCc1cccc(N(C)C(N)=Nc2cc(Br)cc(OC(F)(F)F)c2Br)c1 [N'-(2,5-Dibromo-3-trifluoromethoxy-phenyl)-N-(3-ethyl-phenyl)-N-methyl-guanidine; hydrochloride]
27 | 7.01 | CCc1cccc(N(C)C(N)=Nc2cccc(Cl)c2Cl)c1 [N'-(2,3-Dichloro-phenyl)-N-(3-ethyl-phenyl)-N-methyl-guanidine; hydrochloride]
28 | 7.43 | CCc1cccc(NC(N)=Nc2ccc(Cl)cc2Cl)c1 [N-(2,4-Dichloro-phenyl)-N'-(3-ethyl-phenyl)-guanidine; hydrochloride]
29 | 8.00 | CCc1cccc(NC(N)=Nc2cccc(Br)c2)c1 [N-(3-Bromo-phenyl)-N'-(3-ethyl-phenyl)-guanidine; hydrochloride]
30 | 5.47 | CCc1cccc(N(C)C(N)=Nc2cc(Br)cc(S(C)(=O)=O)c2Br)c1 [N'-(2,5-Dibromo-3-methanesulfonyl-phenyl)-N-(3-ethyl-phenyl)-N-methyl-guanidine; hydrochloride]
31 | 6.89 | CCc1cccc(N(C)C(N)=Nc2cc(Cl)cc(SC)c2Cl)c1 [N'-(2,5-Dichloro-3-methylsulfanyl-phenyl)-N-(3-ethyl-phenyl)-N-methyl-guanidine; hydrochloride]
32 | 7.92 | CCc1cccc(NC(N)=Nc2cc(Cl)ccc2Cl)c1 [N-(2,5-Dichloro-phenyl)-N'-(3-ethyl-phenyl)-guanidine; hydrochloride]
33 | 5.71 | CCc1cccc(N(C)C(N)=Nc2cc(Br)cc([S+](C)[O-])c2Br)c1 (configuration not stated)
34 | 6.96 | CCc1cccc(N(C)C(N)=Nc2cc(Cl)cc(C(F)(F)F)c2Cl)c1 [N'-(2,5-Dichloro-3-trifluoromethyl-phenyl)-N-(3-ethyl-phenyl)-N-methyl-guanidine; hydrochloride]
35 | 7.96 | CCc1cccc(NC(N)=Nc2ccccc2C)c1 [N-(3-Ethyl-phenyl)-N'-o-tolyl-guanidine; hydrochloride]
36 | 7.57 | CCc1cccc(NC(N)=Nc2cccc(Cl)c2)c1 [N-(3-Chloro-phenyl)-N'-(3-ethyl-phenyl)-guanidine; hydrochloride]
37 | 6.44 | CCc1cccc(N(C)C(N)=Nc2ccccc2C(C)C)c1 [N-(3-Ethyl-phenyl)-N'-(2-isopropyl-phenyl)-N-methyl-guanidine; hydrochloride]
38 | 7.14 | CCc1cccc(N(C)C(N)=Nc2ccccc2Cl)c1 [N'-(2-Chloro-phenyl)-N-(3-ethyl-phenyl)-N-methyl-guanidine; hydrochloride]
39 | 6.69 | CCc1cccc(N(C)C(N)=Nc2cc(CC)cc(CC)c2Br)c1 [N'-(2-Bromo-3,5-diethyl-phenyl)-N-(3-ethyl-phenyl)-N-methyl-guanidine; hydrochloride]
40 | 7.85 | CCc1cccc(NC(N)=Nc2c(Cl)cccc2Cl)c1 [N-(2,6-Dichloro-phenyl)-N'-(3-ethyl-phenyl)-guanidine; hydrochloride]
41 | 7.68 | CCc1cccc(NC(N)=Nc2ccccc2C(C)C)c1 [N-(3-Ethyl-phenyl)-N'-(2-isopropyl-phenyl)-guanidine; hydrochloride]
42 | 6.90 | CCc1cccc(N(C)C(N)=Nc2ccccc2Br)c1 [N'-(2-Bromo-phenyl)-N-(3-ethyl-phenyl)-N-methyl-guanidine; hydrochloride]
